Measured values reported in US20230085307A1, “PYRIDAZINONE COMPOUND AND HERBICIDE” (NISSAN CHEMICAL CORPORATION, priority 2019, published 2023).

What was measured:
redroot pigweed [1] = experiment: Test Example 5: herbicidal effect by foliage application, plastic box (Table 20, symbol N); format: in vivo, redroot pigweed (Amaranthus retroflexus); settings: foliage application
Procedure, shortened: (§1)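 Sow seeds spot-wise in sterilized diluvial soil; cover with ~1.5 cm soil. Grow 14 days in greenhouse, 25° C. to 30° C. Spray foliage with emulsion diluted to predetermined amount. Rate effect after 3 weeks.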

oval-leafed pondweed = experiment: Test Example 1: herbicidal activity, application before weed generation under submerged conditions (Table 16, symbol C); format: in vivo, oval-leafed pondweed (Monochoria vaginalis); settings: 320 g/ha applied herbicide
Procedure, shortened: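 Emulsion formulation, water-diluted to set dose, was put onto the flooded surface (4 cm depth, alluvial soil) the same day weeds were sown and 2.5-leaf rice transplanted. After 3 weeks at 25-30 °C under glass, each species was rated 0 (≤5% kill) to 5 (≥90% kill).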

green foxtail [2] = experiment: Test Example 5: herbicidal effect by foliage application, plastic box (Table 20, symbol G); format: in vivo, green foxtail (Setaria viridis); settings: foliage application; for effect on green foxtail (G): 3 weeks after application
Procedure, shortened: as §1

redroot pigweed [3] = experiment: Test Example 4: herbicidal effect by soil treatment (Table 19, symbol N); format: in vivo, redroot pigweed (Amaranthus retroflexus)
Procedure, shortened: (§2)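 Soil-surface application: an emulsion agent diluted with water to the predetermined dose is sprayed uniformly over seeds lying under roughly 1.5 cm of sterilized diluvial soil. Boxes stay in a greenhouse at 25° C. to 30° C. Three weeks later, each species is graded on previously defined criteria.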

rice flat sedge = experiment: Test Example 3: herbicidal effect by foliage application, Wagner pot (Table 18, symbol E); format: in vivo, rice flat sedge (Cyperus iria); settings: for herbicidal effect on E (rice flat sedge), rating 0-5: 320 g/ha
Procedure, shortened: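 Plants were sown in alluvial soil held under 0.1–0.5 cm standing water and grown 14 days in a greenhouse at 25–30 °C. An emulsifiable formulation, water-diluted to the set dose, was then sprayed onto the foliage, and effects were scored three weeks later using previously defined criteria.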

chickweed [4] = experiment: Test Example 4: herbicidal effect by soil treatment (Table 19, symbol P); format: in vivo, common chickweed (Stellaria media)
Procedure, shortened: as §2

persian speedwell = experiment: Test Example 4: herbicidal effect by soil treatment (Table 19, symbol R); format: in vivo, Persian speedwell (Veronica persica)
Procedure, shortened: as §2

barnyard grass = experiment: Test Example 5: herbicidal effect by foliage application, plastic box (Table 20, symbol H); format: in vivo, barnyard grass (Echinochloa crus-galli); settings: foliage application; for effect on barnyard grass (H): 3 weeks after application
Procedure, shortened: as §1

green foxtail [5] = experiment: Test Example 4: herbicidal effect by soil treatment (Table 19, symbol G); format: in vivo, green foxtail (Setaria viridis)
Procedure, shortened: as §2

chickweed [6] = experiment: Test Example 5: herbicidal effect by foliage application, plastic box (Table 20, symbol P); format: in vivo, common chickweed (Stellaria media); settings: foliage application
Procedure, shortened: as §1

wild oat = experiment: Test Example 4: herbicidal effect by soil treatment (Table 19, symbol I); format: in vivo, wild oat (Avena fatua)
Procedure, shortened: as §2

blackgrass [7] = experiment: Test Example 5: herbicidal effect by foliage application, plastic box (Table 20, symbol J); format: in vivo, blackgrass (Alopecurus myosuroides); settings: foliage application; for effect on blackgrass (J): 3 weeks after application
Procedure, shortened: as §1

late watergrass = experiment: Test Example 2: herbicidal activity, application during weed generation under submerged conditions (Table 17, symbol A); format: in vivo, late watergrass (Echinochloa oryzicola); settings: AAH 320 g/ha; application during weed generation, submerged conditions
Procedure, shortened: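 Alluvial soil in Wagner pots was flooded to 4 cm depth and sown with the three weeds together; pots were kept in a greenhouse at 25° C. to 30° C. At the one to two leaf stage, an emulsion formulation diluted in water to a set rate went onto the water surface; scored three weeks later.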

blackgrass [8] = experiment: Test Example 4: herbicidal effect by soil treatment (Table 19, symbol J); format: in vivo, blackgrass (Alopecurus myosuroides)
Procedure, shortened: as §2

Italian ryegrass = experiment: Test Example 4: herbicidal effect by soil treatment (Table 19, symbol K); format: in vivo, Italian ryegrass (Lolium multiflorum)
Procedure, shortened: as §2

[9] = 320 g/ha, three weeks after application
[10] = amount of applied herbicide 320 g/ha
[11] = AAH 320 g/ha, evaluated three weeks after application
[12] = 320 g/ha, evaluated three weeks after application

CCCOc1ccc(-c2sc3ccccc3c2-c2c(O)c(C)nn(C)c2=O)cc1 [1-019]
herbicidal effect grade, N: redroot pigweed (redroot pigweed [1]; [9]): 5 (Herbicidal rate of 90% or more (almost completely withered)) | Herbicidal effect on C: oval-leafed pondweed (grade 0-5) (oval-leafed pondweed): 4 (Herbicidal rate of 70% or more and less than 90%) | herbicidal effect grade, G: green foxtail (green foxtail [2]; [9]): 5 (Herbicidal rate of 90% or more (almost completely withered)) | herbicidal effect rating, N: redroot pigweed (redroot pigweed [3]; [10]): 4 (Herbicidal rate of 70% or more and less than 90%) | herbicidal effect on E (rice flat sedge), rating 0-5 (rice flat sedge): 5 (Herbicidal rate of 90% or more (almost completely withered)) | herbicidal effect rating, P: chickweed (chickweed [4]; [10]): 5 (Herbicidal rate of 90% or more (almost completely withered)) | herbicidal effect rating, R: persian speedwell (persian speedwell; [10]): 5 (Herbicidal rate of 90% or more (almost completely withered)) | herbicidal effect grade, H: barnyard grass (barnyard grass; [9]): 5 (Herbicidal rate of 90% or more (almost completely withered)) | herbicidal effect rating, G: green foxtail (green foxtail [5]; [10]): 2 (Herbicidal rate of 20% or more and less than 40%) | herbicidal effect grade, P: chickweed (chickweed [6]; [9]): 5 (Herbicidal rate of 90% or more (almost completely withered)) | herbicidal effect rating, I: wild oat (wild oat; [10]): 0 (Herbicidal rate of 5% or less (almost no effect)) | herbicidal effect grade, J: blackgrass (blackgrass [7]; [9]): 4 (Herbicidal rate of 70% or more and less than 90%) | herbicidal effect rating, A: late watergrass (late watergrass): 3 (Herbicidal rate of 40% or more and less than 70%) | herbicidal effect rating, J: blackgrass (blackgrass [8]; [10]): 0 (Herbicidal rate of 5% or less (almost no effect)) | herbicidal effect rating, K: Italian ryegrass (Italian ryegrass; [10]): 3 (Herbicidal rate of 40% or more and less than 70%)

COCCOCOc1c(C)nn(C)c(=O)c1-c1c(-c2ccc(OCCC3OCCO3)cc2)sc2ccccc12 [1-224]
Herbicidal effect on C: oval-leafed pondweed (grade 0-5) (oval-leafed pondweed): 3 (Herbicidal rate of 40% or more and less than 70%) | effect on green foxtail (G) (green foxtail [2]; 320 g/ha): 5 (Herbicidal rate of 90% or more (almost completely withered)) | N: redroot pigweed, herbicidal effect rating (redroot pigweed [3]; AAH 320 g/ha): 4 (Herbicidal rate of 70% or more and less than 90%) | herbicidal effect on E (rice flat sedge), rating 0-5 (rice flat sedge): 5 (Herbicidal rate of 90% or more (almost completely withered)) | P: chickweed, herbicidal effect rating (chickweed [4]; AAH 320 g/ha): 0 (Herbicidal rate of 5% or less (almost no effect)) | R: persian speedwell, herbicidal effect rating (persian speedwell; AAH 320 g/ha): 3 (Herbicidal rate of 40% or more and less than 70%) | effect on barnyard grass (H) (barnyard grass; 320 g/ha): 5 (Herbicidal rate of 90% or more (almost completely withered)) | G: green foxtail, herbicidal effect rating (green foxtail [5]; AAH 320 g/ha): 3 (Herbicidal rate of 40% or more and less than 70%) | I: wild oat, herbicidal effect rating (wild oat; AAH 320 g/ha): 0 (Herbicidal rate of 5% or less (almost no effect)) | effect on blackgrass (J) (blackgrass [7]; 320 g/ha): 0 (Herbicidal rate of 5% or less (almost no effect)) | herbicidal effect rating, A: late watergrass (late watergrass): 3 (Herbicidal rate of 40% or more and less than 70%) | J: blackgrass, herbicidal effect rating (blackgrass [8]; AAH 320 g/ha): 0 (Herbicidal rate of 5% or less (almost no effect)) | K: Italian ryegrass, herbicidal effect rating (Italian ryegrass; AAH 320 g/ha): 0 (Herbicidal rate of 5% or less (almost no effect))

Cc1nn(C)c(=O)c(-c2c(-c3ccc(OC(F)F)cc3)sc3ccc(F)cc23)c1OC(=O)C1CCCC1 [2-280]
N: redroot pigweed, herbicidal effect (criteria 0-5) (redroot pigweed [1]; [11]): 5 (Herbicidal rate of 90% or more (almost completely withered)) | Herbicidal effect on C: oval-leafed pondweed (grade 0-5) (oval-leafed pondweed): 0 (Herbicidal rate of 5% or less (almost no effect)) | G: green foxtail, herbicidal effect (criteria 0-5) (green foxtail [2]; [11]): 4 (Herbicidal rate of 70% or more and less than 90%) | herbicidal effect on N: redroot pigweed (redroot pigweed [3]; [10]): 5 (Herbicidal rate of 90% or more (almost completely withered)) | herbicidal effect on E: rice flat sedge (rice flat sedge; [10]): 4 (Herbicidal rate of 70% or more and less than 90%) | herbicidal effect on P: chickweed (chickweed [4]; [10]): 1 (Herbicidal rate of 5% or more and less than 20%) | herbicidal effect on R: persian speedwell (persian speedwell; [10]): 4 (Herbicidal rate of 70% or more and less than 90%) | H: barnyard grass, herbicidal effect (criteria 0-5) (barnyard grass; [11]): 5 (Herbicidal rate of 90% or more (almost completely withered)) | herbicidal effect on G: green foxtail (green foxtail [5]; [10]): 2 (Herbicidal rate of 20% or more and less than 40%) | P: chickweed, herbicidal effect (criteria 0-5) (chickweed [6]; [11]): 5 (Herbicidal rate of 90% or more (almost completely withered)) | herbicidal effect on I: wild oat (wild oat; [10]): 0 (Herbicidal rate of 5% or less (almost no effect)) | J: blackgrass, herbicidal effect (criteria 0-5) (blackgrass [7]; [11]): 5 (Herbicidal rate of 90% or more (almost completely withered)) | herbicidal effect rating, A: late watergrass (late watergrass): 4 (Herbicidal rate of 70% or more and less than 90%) | herbicidal effect on J: blackgrass (blackgrass [8]; [10]): 1 (Herbicidal rate of 5% or more and less than 20%) | herbicidal effect on K: Italian ryegrass (Italian ryegrass; [10]): 5 (Herbicidal rate of 90% or more (almost completely withered))

Cc1nn(C)c(=O)c(-c2c(-c3ccc(Cl)cc3)sc3ccc(F)cc23)c1O [Compound No. 2-010, 4-(2-(4-chlorophenyl)-5-fluorobenzo[b]thiophen-3-yl)-5-hydroxy-2,6-dimethylpyridazin-3(2H)-one]
Herbicidal effect on C: oval-leafed pondweed (grade 0-5) (oval-leafed pondweed): 1 (Herbicidal rate of 5% or more and less than 20%) | effect on green foxtail (G) (green foxtail [2]; 320 g/ha): 5 (Herbicidal rate of 90% or more (almost completely withered)) | herbicidal effect rating, N: redroot pigweed (redroot pigweed [3]; 320 g/ha): 5 (Herbicidal rate of 90% or more (almost completely withered)) | herbicidal effect on E (rice flat sedge), rating 0-5 (rice flat sedge): 5 (Herbicidal rate of 90% or more (almost completely withered)) | herbicidal effect rating, P: chickweed (chickweed [4]; 320 g/ha): 4 (Herbicidal rate of 70% or more and less than 90%) | herbicidal effect rating, R: persian speedwell (persian speedwell; 320 g/ha): 5 (Herbicidal rate of 90% or more (almost completely withered)) | effect on barnyard grass (H) (barnyard grass; 320 g/ha): 5 (Herbicidal rate of 90% or more (almost completely withered)) | herbicidal effect rating, G: green foxtail (green foxtail [5]; 320 g/ha): 5 (Herbicidal rate of 90% or more (almost completely withered)) | herbicidal effect rating, I: wild oat (wild oat; 320 g/ha): 1 (Herbicidal rate of 5% or more and less than 20%) | effect on blackgrass (J) (blackgrass [7]; 320 g/ha): 3 (Herbicidal rate of 40% or more and less than 70%) | herbicidal effect rating, J: blackgrass (blackgrass [8]; 320 g/ha): 0 (Herbicidal rate of 5% or less (almost no effect)) | herbicidal effect rating, K: Italian ryegrass (Italian ryegrass; 320 g/ha): 5 (Herbicidal rate of 90% or more (almost completely withered))

COc1cc(F)ccc1-c1sc2ccc(Cl)cc2c1-c1c(O)c(C)nn(C)c1=O [Compound No. 2-095, 4-(5-chloro-2-(4-fluoro-2-methoxyphenyl)benzo[b]thiophen-3-yl)-5-hydroxy-2,6-dimethylpyridazin-3(2H)-one]
herbicidal effect on N: redroot pigweed (redroot pigweed [1]; [12]): 5 (Herbicidal rate of 90% or more (almost completely withered)) | Herbicidal effect on C: oval-leafed pondweed (grade 0-5) (oval-leafed pondweed): 0 (Herbicidal rate of 5% or less (almost no effect)) | herbicidal effect on G: green foxtail (green foxtail [2]; [12]): 5 (Herbicidal rate of 90% or more (almost completely withered)) | herbicidal effect rating, N: redroot pigweed (redroot pigweed [3]; 320 g/ha): 4 (Herbicidal rate of 70% or more and less than 90%) | herbicidal effect on E (rice flat sedge), rating 0-5 (rice flat sedge): 5 (Herbicidal rate of 90% or more (almost completely withered)) | herbicidal effect rating, P: chickweed (chickweed [4]; 320 g/ha): 3 (Herbicidal rate of 40% or more and less than 70%) | herbicidal effect rating, R: persian speedwell (persian speedwell; 320 g/ha): 4 (Herbicidal rate of 70% or more and less than 90%) | herbicidal effect on H: barnyard grass (barnyard grass; [12]): 4 (Herbicidal rate of 70% or more and less than 90%) | herbicidal effect rating, G: green foxtail (green foxtail [5]; 320 g/ha): 4 (Herbicidal rate of 70% or more and less than 90%) | herbicidal effect on P: chickweed (chickweed [6]; [12]): 5 (Herbicidal rate of 90% or more (almost completely withered)) | herbicidal effect rating, I: wild oat (wild oat; 320 g/ha): 0 (Herbicidal rate of 5% or less (almost no effect)) | herbicidal effect on J: blackgrass (blackgrass [7]; [12]): 4 (Herbicidal rate of 70% or more and less than 90%) | herbicidal effect rating, J: blackgrass (blackgrass [8]; 320 g/ha): 3 (Herbicidal rate of 40% or more and less than 70%) | herbicidal effect rating, K: Italian ryegrass (Italian ryegrass; 320 g/ha): 0 (Herbicidal rate of 5% or less (almost no effect))
